The test system of data set [1] is Mycoplasma gallisepticum KP-13. Put plainly: MIC by tube dilution method in brain heart infusion broth. The data set is classed as cell-based. The note with it: Mycoplasmoides gallisepticum, KP13; Mycoplasma gallisepticum KP-13; brain heart infusion broth pH 7.5; read-out: Minimum growth inhibitory concentration. Here is the method:
(§1) The minimum growth inhibitory concentrations (MIC) of the compounds (I) against various microorganisms were measured by a tube dilution method in a brain heart infusion broth (pH 7.5) as a medium.

The test system of data set [2] is Shigella dysenteriae JS 11910. Described as above. As to conditions: JS11910, pH 7.5, read-out: Minimum growth inhibitory concentration. The data set is classed as cell-based. The protocol: as §1
Data set [3] has as its system Corynebacterium bovis 1810. Described as above. It is filed as cell-based. As to conditions: Corynebacterium bovis 1810; brain heart infusion broth pH 7.5; read-out: Minimum growth inhibitory concentration. Here is the method: as §1
The subject of data set [4] is Staphylococcus aureus 209P. Described as above. It is filed as cell-based. The note with it: brain heart infusion broth pH 7.5. The protocol: as §1
Data set [5] has as its system Staphylococcus aureus MS9861. The description is as above. It is filed as cell-based. As to conditions: MS9861, Table 2-2, brain heart infusion broth pH 7.5, read-out: Antimicrobial activity (MIC) Staphylococcus aureus MS9861. Here is the method:
as §1

Data set [6] concerns Staphylococcus aureus MS10225. Described as above. It is filed as cell-based. As to conditions: Staphylococcus aureus MS10225 (resistant to tylosin); brain heart infusion broth pH 7.5; read-out: Minimum growth inhibitory concentration. Here is the method: as §1
The subject of data set [7] is Bacillus subtilis NRRL B-558. The description is as above. The data set is classed as cell-based. The note with it: NRRLB558, brain heart infusion broth pH 7.5. The protocol:
as §1

For data set [8], the system named is Klebsiella pneumoniae PCI602. The description is as above. It is filed as cell-based. As to conditions: brain heart infusion broth pH 7.5. Here is the method:
as §1

For another data set, the system named is Sartina lutea PCI 1001. The description is as above. The note with it: Sartina lutea PCI 1001; brain heart infusion broth pH 7.5; read-out: Minimum growth inhibitory concentration. The data set is classed as cell-based. The protocol: as §1
The subject of a further data set is Escherichia coli NIHJ. Described as above. It is filed as cell-based. The note with it: Escherichia coli NIHJ; brain heart infusion broth pH 7.5; read-out: Minimum growth inhibitory concentration. The protocol: as §1
Details of data set [9]: species or system mice. The note with it: mouse, in vivo, po. Here is the method: • (2) Concentration in the blood • (2-1) The concentration of the antibiotic YT-3927 of formula (I-a) in the blood was measured by bioassay with […] lutea using mice. […] Then, periodically, the concentration of the antibiotic YT-3927 in the blood was measured. The peak of the blood concentration was noted 1.5 to 2 hours after the administration, and at the peak, the concentration was […]. In contrast, in the same experiment with tylosin, the peak was noted 1.5 to 2 hours later, but the concentration was less than one-fifth of that of the antibiotic YT-3927. • (2-2) The concentration of each of the antibiotic YT-3927 derivatives of formula (I-b) in the blood was measured by bioassay with […] lutea using mice. […] The concentration of the derivative (I-b) in the blood was periodically measured. The concentration of each of the compounds (I-b) 2 hours after the administration is shown in Table 3. [formula] • (3) Toxicity

≈ marks a conversion by molar mass, not a printed value. Like-named read-outs stand apart in the source and are kept apart here.

In the case of `CC[C@H]1OC(=O)C[C@@H](O)[C@H](C)[C@@H](O[C@@H]2O[C@H](C)[C@@H](O[C@H]3C[C@@](C)(O)[C@@H](O)[C@H](C)O3)[C@H](N(C)C)[C@H]2O)[C@@H](CC=O)C[C@@H](C)C(=O)/C=C/C(C)=C/[C@@H]1CO[C@@H]1O[C@H](C)[C@@H](O)[C@@H](OC)[C@H]1OC` [Tylosin, reference compound], the MIC in data set [1] was 0.02 µg/mL (≈ 0.0218 µM); in data set [2], 25 µg/mL (≈ 27.3 µM); in data set [3] it was < 0.2 µg/mL; in data set [4] (Staphylococcus aureus 209P, Table 2-1, read-out: Minimum growth inhibitory concentration), 0.78 µg/mL (≈ 0.851 µM); in data set [4] (Staphylococcus aureus, 209P, Table 2-2, read-out: Antimicrobial activity (MIC) Staphylococcus aureus 209P), 0.8 µg/mL (≈ 0.873 µM); in [5], 6.3 µg/mL (≈ 6.88 µM). Moreover, the MIC was 3.12 µg/mL (≈ 3.41 µM) in data set [6]; 0.8 µg/mL (≈ 0.873 µM) in data set [7] (Bacillus subtilis, Table 2-2, read-out: Antimicrobial activity (MIC) Bacillus subtilis NRRL B558); 0.78 µg/mL (≈ 0.851 µM) in [7] (Bacillus subtilis NRRL B-558, Table 2-1, read-out: Minimum growth inhibitory concentration); 25 µg/mL (≈ 27.3 µM) in data set [8] (Klebsiella pneumoniae PCI602, Table 2-1, read-out: Minimum growth inhibitory concentration); 25 µg/mL (≈ 27.3 µM) in data set [8] (Klebsiella pneumoniae, PCI602, Table 2-2, read-out: Antimicrobial activity (MIC) Klebsiella pneumonae PCI602); < 0.2 µg/mL in the data set on Sartina lutea PCI 1001. The MIC in the data set with Escherichia coli NIHJ was determined as 100 µg/mL (≈ 109 µM). Besides, the “peak concentration in the blood as a fraction of that of the antibiotic YT-3927” value in [9] was “less than one-fifth”.

(Values after patent publication EP0052361A1, “Novel 16-membered macrolide compounds” (SANRAKU-OCEAN CO., LTD., priority 1980, dated 1982).)
